Results taken from US8785147B2, “L-threonine analysis method and L-threonine dehydrogenase” (Toyama Prefecture, priority 2010, dated 2014).
Where two headings read alike, the source gives them in different places.

Assays:
[1] = tested on: Purified TDH derived from Cupriavidus necator NBRC 102504; assay: Effect of metal ions and inhibitors on TDH activity (residual activity); format: biochemical; conditions: for Relative activity (residual TDH activity): metal ions final concentration 1 mM, relative to enzyme without additives
[2] = tested on: TDH derived from Cupriavidus necator NBRC 102504 (SEQ ID NO: 1) (CnTDH); assay: Substrate specificity of TDH, standard assay; format: biochemical; conditions: for Relative activity (%) CnTDH: substrate concentration 10 mM, standard assay conditions, L-threonine = 100
Experimental: L-threonine oxidation activity was determined by measuring coenzyme NAD^+ reduction at 30° C. and 340 nm. The reaction composition consisted of a total volume of 1 mL and contained L-threonine (final concentration 10 mM), NAD^+ (final concentration 2.5 mM), and glycine-KCl—KOH buffer (100 mM, pH 10.0). The measurement of activity began with the addition of the enzyme. One unit (U) of enzymatic activity was defined as the amount of enzyme producing 1 μmol of NADH per minute under standard conditions.
TDH was examined using substrates in the form of various L-amino acids, amino alcohols, and alcohols. […]

[3] = tested on: CsTDH: TDH from Clostridium sticklandii; conditions: substrate specificity; L-threonine = 100; cited from earlier work
[4] = biological target: PfTDH: TDH from Pyrococcus furiosus (Pyrococcus furiosus, UniProt Q8U259); conditions: cited from earlier work
[5] = tested on: CyTDH: TDH from Cytophaga sp. KUC-1; conditions: substrate specificity; L-threonine = 100; cited from earlier work
[6] = biological target: EcTDH: TDH from Escherichia coli K-12 (Escherichia coli, UniProt P07913); conditions: substrate specificity; L-threonine = 100; cited from earlier work
[7] = substrate specificity, L-threonine = 100
[8] = inhibitors final concentration 10 mM, 30° C. for 1 hour, None = 100
[9] = inhibitors final concentration 10 mM, 30° C. for 1 hour

Chain of PfTDH: TDH from Pyrococcus furiosus (Q8U259 whole entry): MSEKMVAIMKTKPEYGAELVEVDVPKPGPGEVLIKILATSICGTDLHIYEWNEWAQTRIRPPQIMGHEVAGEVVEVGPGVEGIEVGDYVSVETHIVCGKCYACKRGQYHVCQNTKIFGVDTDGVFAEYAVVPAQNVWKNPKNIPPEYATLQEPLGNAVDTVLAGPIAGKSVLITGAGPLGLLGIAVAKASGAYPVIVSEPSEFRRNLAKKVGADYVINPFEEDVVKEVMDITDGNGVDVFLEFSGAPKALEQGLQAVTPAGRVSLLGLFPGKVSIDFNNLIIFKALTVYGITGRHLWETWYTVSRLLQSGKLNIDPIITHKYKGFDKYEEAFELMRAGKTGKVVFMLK
Chain of EcTDH: TDH from Escherichia coli K-12 (P07913 whole entry): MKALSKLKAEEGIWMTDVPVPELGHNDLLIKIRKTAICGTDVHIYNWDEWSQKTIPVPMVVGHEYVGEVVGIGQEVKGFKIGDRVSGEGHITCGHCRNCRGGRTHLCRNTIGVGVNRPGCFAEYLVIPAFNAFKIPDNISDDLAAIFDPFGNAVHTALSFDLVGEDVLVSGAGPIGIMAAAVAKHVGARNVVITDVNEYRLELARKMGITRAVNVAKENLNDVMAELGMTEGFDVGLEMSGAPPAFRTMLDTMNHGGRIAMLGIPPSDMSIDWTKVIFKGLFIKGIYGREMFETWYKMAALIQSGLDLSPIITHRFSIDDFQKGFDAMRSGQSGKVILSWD

| SMILES | Relative activity (%) CnTDH [2] [%] | Relative activity (%) CsTDH [3] [%] | Relative activity (%) PfTDH [4, 7] [%] | Relative activity (%) CyTDH [5] [%] | other results |
| --- | --- | --- | --- | --- | --- |
| O=S(=O)([O-])[O-].[Zn+2] [ZnSO4] | – | – | – | – | Relative activity (residual TDH activity) ([1]; 30° C. for 1 hour): 109% |
| [N-]=[N+]=[N-].[Na+] [NaN3] | – | – | – | – | Relative activity (%) (residual TDH activity) [1]: 12% |
| NC(=O)c1ccc[n+]([C@@H]2O[C@H](COP(=O)([O-])OP(=O)(O)OC[C@H]3O[C@@H](n4cnc5c(N)ncnc54)[C@H](O)[C@@H]3O)[C@@H](O)[C@H]2O)c1 [NAD^+, nicotinamide adenine dinucleotide] | – | – | – | – | Activity of the enzyme with the coenzyme (in words) ([2]; as coenzyme): showed the activity |
| NC(=O)C[C@H](N)C(=O)O [L-asparagine] | 0 | 0 | 0 | 0 | – |
| N[C@@H](Cc1c[nH]cn1)C(=O)O [L-histidine] | 0 | 0 | 0 | 0 | – |
| C[C@@H](O)[C@H](N)C(=O)O [L-threonine hydroxide] | 0 | 0 | – | – | Relative activity (%) EcTDH [6]: 25% |
| N[C@H](CO)C(=O)O [D-serine] | 0 | – | – | – | – |
| CCC(O)CO (stereo not shown) [1,2-Butanediol] | 0 | – | 52 | – | – |
| CSCC[C@H](N)C(=O)O [L-methionine] | 0 | 0 | – | 0 | Relative activity (%) PfTDH [4]: 0% |
| CC[C@H](C)[C@H](N)C(=O)O [L-isoleucine] | 0 | 0 | 0 | 0 | – |
| [Cl-].[Cs+] [CsCl] | – | – | – | – | Relative activity (residual TDH activity) ([1]; 30° C. for 1 hour): 117% |
| O=C(O)c1cc[c]([Hg][Cl])cc1 [PCMB] | – | – | – | – | Relative activity (%) (residual TDH activity) [1, 8]: 6.2% |
| [Cl][Hg][Cl] [HgCl2] | – | – | – | – | Relative activity (%) (residual TDH activity) [1]: 23% |
| CC(O)CCO (stereo not shown) [1,3-Butanediol] | 0 | – | 0 | – | – |
| NCC(=O)O [Glycine] | 0 | 0 | – | 0 | Relative activity (%) PfTDH [4]: 0% |
| OCCS [β-mercaptoethanol] | – | – | – | – | Inhibition of TDH activity (in words) [1, 9]: Nor did the reducing agents β-mercaptoethanol and DTT inhibit enzymatic activity; Relative activity (%) (residual TDH activity) [1, 8]: 114% |
| COC(=O)[C@@H](N)[C@@H](C)O [L-threonine methyl ester] | 0 | 0 | – | – | Relative activity (%) EcTDH [6]: 27% |

| SMILES | Relative activity (%) CnTDH [2] [%] | Relative activity (%) CsTDH [3] [%] | Relative activity (%) PfTDH [4, 7] [%] | Relative activity (%) CyTDH [5] [%] | other results |
| --- | --- | --- | --- | --- | --- |
| N[C@@H](Cc1c[nH]c2ccccc12)C(=O)O [L-tryptophan] | 0 | 0 | 0 | 0 | – |
| [Cl-].[Cl-].[Zn+2] [ZnCl2] | – | – | – | – | Relative activity (residual TDH activity) ([1]; 30° C. for 1 hour): 105% |
| N[C@@H](CCC(=O)O)C(=O)O [L-glutamic acid] | 0 | 0 | 0 | 0 | – |
| [Cl][Pb][Cl] [PbCl2] | – | – | – | – | Relative activity (residual TDH activity) ([1]; 30° C. for 1 hour): 118% |
| CC(=O)C(C)O (stereo not shown) [Acetoin] | 0 | 0 | 38 | – | – |
| COS(=O)(=O)[O-].C[n+]1c2ccccc2nc2ccccc21 [PMS, phenazine methosulfate] | – | – | – | – | Inhibition of TDH activity (in words) [1, 9]: inhibited; Relative activity (%) (residual TDH activity) [1, 8]: 0.0% |
| O=C(O)CN(CCN(CC(=O)O)CC(=O)O)CC(=O)O [EDTA] | – | – | – | – | Inhibition of TDH activity (in words) [1, 9]: not inhibited; Relative activity (%) (residual TDH activity) [1, 8]: 103% |
| C[C@@H](O)[C@@H](N)C(=O)O [D-allothreonine] | 0 | 0 | – | 0 | – |
| O=C(O)CN(CCOCCOCCN(CC(=O)O)CC(=O)O)CC(=O)O [EGTA] | – | – | – | – | Inhibition of TDH activity (in words) [1, 9]: not inhibited; Relative activity (%) (residual TDH activity) [1, 8]: 94% |
| [Cl][Sn][Cl] [SnCl2] | – | – | – | – | Relative activity (residual TDH activity) ([1]; 30° C. for 1 hour): 84% |
| CC(C)[C@H](N)C(=O)O [L-valine] | 0 | 0 | 0 | 0 | – |
| N[C@@H](Cc1ccccc1)C(=O)O [L-phenylalanine] | 0 | 0 | 0 | 0 | – |
| CCC(N)CO (racemic) [DL-2-amino1-butanol] | 0 | – | – | – | – |
| O[C@@H](CS)[C@@H](O)CS [DTT] | – | – | – | – | Inhibition of TDH activity (in words) [1, 9]: Nor did the reducing agents β-mercaptoethanol and DTT inhibit enzymatic activity; Relative activity (%) (residual TDH activity) [1, 8]: 125% |
| [Cl-].[Cl-].[Mg+2] [MgCl2] | – | – | – | – | Relative activity (residual TDH activity) ([1]; 30° C. for 1 hour): 112% |
| C[C@@H](O)[C@H](N)C(=O)O (racemic) [DL-threonine] | 64 | – | – | – | – |
| N[C@@H](Cc1ccc(O)cc1)C(=O)O [L-tyrosine] | 0 | 0 | 0 | 0 | – |
